# From PMC6151740, “Pharmacokinetics, Tissue Distribution, and Elimination of Three Active Alkaloids in Rats after Oral Administration of the Effective Fraction of Alkaloids from Ramulus Mori, an Innovative Hypoglycemic Agent” (Molecules : A Journal of Synthetic Chemistry and Natural …, 2017)
# “And” between values parts separate entries of the source, which are not always exact repeats. Equal entries are not always repeated.
# What was measured:
# [1] = Tissue distribution in rats after oral SZ–A; type: in vivo; settings: Sprague-Dawley, pancreas, rat, SZ–A 40 mg/kg p.o., 0.25, 0.5 and 2 h, n = 3, read-out: tissue to plasma ratio (T/P) in the pancreas
# Method: Three groups of rats (three rats in each group) were administered with a single oral dose of SZ–A at 40 mg/kg. Rats each were sacrificed and various tissues, including liver, kidney, pancreas, stomach, duodenum, jejunum, ileum, cecum, colon, and the content in the gastrointestinal tract were collected at 0.25, 0.5, and 2 h time points. One additional rat was sacrificed predose to provide control tissues for analysis. After removing blood or content and weighing, each sample was individually homogenized with normal saline solution (1:3, w/v for tissue; 1:9, w/v for content) using a tissue homogenizer (Polytron PT1600E, Kinematica, Luzern, Switzerland) and stored at −20 °C until LC-MS/MS analysis.
# [2] = Excretion into urine, feces and bile in rats after oral SZ–A; type: in vivo; settings: rat, SZ–A 40 mg/kg p.o.; for dose excreted: bile, po, within 32 h, read-out: recovery in bile (% of dose); for cumulative excretion into feces (% of dose) / cumulative excretion into urine (% of dose): over a 24 h period, n = 5
# Method: Five rats were kept in the metabolic cages with free access to water and food 2 h post dose. Urine was collected before dosing and at 0–4, 4–8, 8–24, 24–36, and 36–48 h, and feces was simultaneously collected before dosing and at 0–24, 24–36, and 36–48 h after oral dosing of SZ–A (40 mg/kg). Feces samples were dried and grinded into powder, then homogenized with normal saline solution (1:9, w/v). Additionally, the bile duct of rats under ether anesthesia were cannulated with a PE-10 tube (Portex Ltd., Kent, UK). Bile was collected before dosing and at 0–1, 1–2, 2–4, 4–6, 6–10, 10–20, 20–24, 24–28, and 28–32 h following oral administration of SZ–A (40 mg/kg). All urine, feces, and bile samples were stored at −20 °C until LC-MS/MS analysis.
# [3] = tested on: rat caecal microbiota cultures; experiment: In vitro incubation of SZ–A with rat caecal microbiota cultures; type: in vitro ADME; settings: 2 h
# Method: Pooled rat intestinal homogenate from six males was prepared using a tissue homogenizer with ice cold normal saline solution at a proportion of 1:3 (w/v). SZ–A was incubated with rat intestinal homogenate (5 mg protein/mL) with/without a NADPH-generating system (0.011 M β-NADP, 0.1 M glucose 6-phosphate, 10 U/mL glucose-6-phosphate dehydrogenase) in a 37 °C water bath for 120 min. Meanwhile, caecal content was collected and mixed with anaerobic medium (1:30, w/v) to prepare the cultures under nitrogen atmosphere at 37 °C for 120 min. SZ–A and rat caecal microbiota cultures were incubated at a total volume of 200 μL with the boiled samples as the negative control, concomitantly. The incubation was stopped at 2 h by adding two volumes of methanol–acetonitrile (1:3, v/v). Triplicate supernatants were taken by centrifugation at 18,880× g for 5 min and stored at −20 °C until LC-MS/MS analysis. The results were expressed as the percentage of the concentration at 0 min.
# [4] = 4.35 μg/mL SZ–A (10 μM DNJ, 1.9 μM FGM, 1.6 μM DAB)
# [5] = 10.87 μg/mL SZ–A (25 μM DNJ, 4.7 μM FGM, 3.9 μM DAB)
SMILES,Kp [1],dose excreted [2] [%],cumulative excretion into feces (% of dose) [2] [%],cumulative excretion into urine (% of dose) [2] [%],"percentage of initial amount after incubation with rat gut microbiota cultures [3, 4] [%]","percentage of initial amount after incubation with rat gut microbiota cultures [3, 5] [%]",total excretive amount (urine and feces) relative to the oral dose [2],cumulative excretion into feces (% of dose) ([2]; 40 mg/kg)
"OC[C@H]1NC[C@H](O)[C@@H](O)[C@@H]1O [DNJ, 1-deoxynojirimycin]",0.06 to 0.47,0.29,43.97,65.32,110.6,115.5,,
"OC[C@H]1NCC[C@@H](O)[C@@H]1O [FGM, fagomine]",0.18 to 1.13,0.5,,65.36,152.8,172.0,about two-fold,131.4% and 131.41%
"OC[C@H]1NC[C@@H](O)[C@@H]1O [DAB, 1,4-dideoxy-1,4-imino-D-arabinitol]",0.09 to 0.59,0.35,34.05,52.91,182.2,159.3,,
